# Laboratory results published in ChEMBL document CHEMBL3132769, “Fragment growing to retain or alter the selectivity of anchored kinase hinge-binding fragments” (Medchemcomm, 2014).
# Columns and labels:
# [1] = biological target: Casein kinase I isoform alpha (Homo sapiens) (UniProt P48729); assay: Inhibition of human full length CSNK1A1 expressed in baculovirus assessed as substrate phosphorylation using fluorescence-labelled peptides as substrate at 0.2 uM after 90 mins by microfluidic peptide phosphorylation assay
# Casein kinase I isoform alpha (Homo sapiens), sequence (P48729 2-337 limits assumed): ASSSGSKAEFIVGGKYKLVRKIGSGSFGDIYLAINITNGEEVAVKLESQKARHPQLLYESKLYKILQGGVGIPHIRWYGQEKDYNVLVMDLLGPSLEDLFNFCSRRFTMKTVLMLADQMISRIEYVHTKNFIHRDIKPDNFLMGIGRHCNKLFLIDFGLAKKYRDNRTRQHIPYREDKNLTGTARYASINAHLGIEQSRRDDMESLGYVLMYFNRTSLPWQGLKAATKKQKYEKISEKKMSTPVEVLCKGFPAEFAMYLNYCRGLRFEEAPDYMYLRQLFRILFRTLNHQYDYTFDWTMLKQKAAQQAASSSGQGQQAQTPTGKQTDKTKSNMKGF
# [2] = biological target: Aurora kinase B (Homo sapiens) (UniProt Q96GD4); assay: Inhibition of human full length AurB expressed in baculovirus assessed as substrate phosphorylation using fluorescence-labelled peptides as substrate at 2 uM after 90 mins by microfluidic peptide phosphorylation assay
# Aurora kinase B (Homo sapiens), sequence (Q96GD4 whole entry): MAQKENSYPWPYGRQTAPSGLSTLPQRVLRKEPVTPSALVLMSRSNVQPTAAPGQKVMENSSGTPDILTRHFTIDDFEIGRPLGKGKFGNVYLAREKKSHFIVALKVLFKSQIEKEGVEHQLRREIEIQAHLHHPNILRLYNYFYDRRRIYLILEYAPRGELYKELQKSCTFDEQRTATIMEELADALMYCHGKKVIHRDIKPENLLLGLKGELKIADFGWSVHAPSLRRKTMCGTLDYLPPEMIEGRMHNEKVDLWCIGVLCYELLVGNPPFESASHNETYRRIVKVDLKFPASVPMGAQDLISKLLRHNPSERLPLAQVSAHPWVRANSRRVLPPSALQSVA
# [3] = biological target: Tyrosine-protein kinase ABL1 (Homo sapiens) (UniProt P00519); assay: Inhibition of human full-length ABL expressed in baculovirus assessed as substrate phosphorylation using fluorescence-labelled peptides as substrate at 95 uM after 90 mins by microfluidic peptide phosphorylation assay
# [4] = biological target: Serine/threonine-protein kinase PAK 2 (Homo sapiens) (UniProt Q13177); assay: Inhibition of human truncated PAK2 expressed in Escherichia coli cell assessed as substrate phosphorylation using fluorescence-labelled peptides as substrate at […] after 90 mins by microfluidic peptide phosphorylation assay
# Serine/threonine-protein kinase PAK 2 (Homo sapiens), sequence (Q13177 whole entry, the tested form may be a part): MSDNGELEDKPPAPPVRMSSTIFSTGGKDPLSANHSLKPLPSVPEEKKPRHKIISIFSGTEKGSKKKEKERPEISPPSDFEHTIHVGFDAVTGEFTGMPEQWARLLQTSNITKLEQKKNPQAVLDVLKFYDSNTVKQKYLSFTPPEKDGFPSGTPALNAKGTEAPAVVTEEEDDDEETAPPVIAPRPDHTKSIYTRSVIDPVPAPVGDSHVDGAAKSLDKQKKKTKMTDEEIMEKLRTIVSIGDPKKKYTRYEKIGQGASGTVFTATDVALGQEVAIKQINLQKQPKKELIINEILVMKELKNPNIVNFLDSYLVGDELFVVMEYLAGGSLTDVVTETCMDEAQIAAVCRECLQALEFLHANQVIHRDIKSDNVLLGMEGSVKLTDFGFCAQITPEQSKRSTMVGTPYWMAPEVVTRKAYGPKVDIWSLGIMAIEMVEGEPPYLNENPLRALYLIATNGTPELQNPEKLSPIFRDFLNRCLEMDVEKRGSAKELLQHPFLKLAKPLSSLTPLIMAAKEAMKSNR
# [5] = biological target: Cyclin-dependent kinase 2 (Homo sapiens) (UniProt P24941); assay: Inhibition of human full length CDK2 expressed in baculovirus assessed as substrate phosphorylation using fluorescence-labelled peptides as substrate at […] after 90 mins by microfluidic peptide phosphorylation assay
# [6] = biological target: Hepatocyte growth factor receptor (Homo sapiens) (UniProt P08581); assay: Inhibition of human MET cytoplasmic domain expressed in baculovirus assessed as substrate phosphorylation using fluorescence-labelled peptides as substrate at 0.06 uM after 90 mins by microfluidic peptide phosphorylation assay
# Hepatocyte growth factor receptor (Homo sapiens), sequence (P08581 whole entry, the tested form may be a part): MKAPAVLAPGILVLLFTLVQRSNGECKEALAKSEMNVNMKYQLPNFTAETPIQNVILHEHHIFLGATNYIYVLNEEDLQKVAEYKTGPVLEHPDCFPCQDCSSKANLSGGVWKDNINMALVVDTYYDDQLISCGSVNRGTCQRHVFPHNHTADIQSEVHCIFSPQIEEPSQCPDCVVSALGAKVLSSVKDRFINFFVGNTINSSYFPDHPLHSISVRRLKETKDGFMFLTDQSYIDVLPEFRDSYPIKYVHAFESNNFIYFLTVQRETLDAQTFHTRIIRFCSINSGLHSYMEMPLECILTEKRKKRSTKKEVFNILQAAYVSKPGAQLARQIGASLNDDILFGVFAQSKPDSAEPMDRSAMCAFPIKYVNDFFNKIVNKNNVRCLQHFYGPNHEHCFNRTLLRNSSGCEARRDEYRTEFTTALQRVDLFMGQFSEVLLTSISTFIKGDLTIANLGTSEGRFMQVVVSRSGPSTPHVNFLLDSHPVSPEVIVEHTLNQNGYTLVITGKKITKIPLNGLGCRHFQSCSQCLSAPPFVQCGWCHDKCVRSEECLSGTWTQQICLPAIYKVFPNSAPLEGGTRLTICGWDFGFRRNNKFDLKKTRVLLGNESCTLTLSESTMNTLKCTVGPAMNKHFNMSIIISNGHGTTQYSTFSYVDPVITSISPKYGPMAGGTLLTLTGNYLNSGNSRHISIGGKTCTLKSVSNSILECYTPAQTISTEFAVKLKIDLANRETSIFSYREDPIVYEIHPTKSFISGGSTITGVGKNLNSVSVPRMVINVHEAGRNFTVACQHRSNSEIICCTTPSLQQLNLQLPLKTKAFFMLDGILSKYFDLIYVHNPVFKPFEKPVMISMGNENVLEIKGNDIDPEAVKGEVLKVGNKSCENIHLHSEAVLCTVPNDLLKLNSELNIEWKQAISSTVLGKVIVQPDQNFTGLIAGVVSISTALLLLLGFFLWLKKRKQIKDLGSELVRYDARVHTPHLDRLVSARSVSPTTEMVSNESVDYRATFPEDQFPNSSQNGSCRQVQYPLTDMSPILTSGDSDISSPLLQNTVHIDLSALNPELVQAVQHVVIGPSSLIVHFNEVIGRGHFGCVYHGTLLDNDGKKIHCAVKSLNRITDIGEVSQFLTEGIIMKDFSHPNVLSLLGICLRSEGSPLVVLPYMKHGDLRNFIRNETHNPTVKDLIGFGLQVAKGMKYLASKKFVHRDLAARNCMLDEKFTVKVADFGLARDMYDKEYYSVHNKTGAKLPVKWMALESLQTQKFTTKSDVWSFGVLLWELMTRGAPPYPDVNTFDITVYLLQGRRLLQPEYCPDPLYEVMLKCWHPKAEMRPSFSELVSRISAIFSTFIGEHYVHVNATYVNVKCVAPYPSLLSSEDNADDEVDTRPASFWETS
# [7] = biological target: T1, Serine/threonine-protein kinase Nek2 (Homo sapiens) (UniProt P51955); assay: Inhibition of human full length NEK2 expressed in baculovirus assessed as substrate phosphorylation using fluorescence-labelled peptides as substrate at 8 uM after 90 mins by microfluidic peptide phosphorylation assay
# T1 sequence (whole entry): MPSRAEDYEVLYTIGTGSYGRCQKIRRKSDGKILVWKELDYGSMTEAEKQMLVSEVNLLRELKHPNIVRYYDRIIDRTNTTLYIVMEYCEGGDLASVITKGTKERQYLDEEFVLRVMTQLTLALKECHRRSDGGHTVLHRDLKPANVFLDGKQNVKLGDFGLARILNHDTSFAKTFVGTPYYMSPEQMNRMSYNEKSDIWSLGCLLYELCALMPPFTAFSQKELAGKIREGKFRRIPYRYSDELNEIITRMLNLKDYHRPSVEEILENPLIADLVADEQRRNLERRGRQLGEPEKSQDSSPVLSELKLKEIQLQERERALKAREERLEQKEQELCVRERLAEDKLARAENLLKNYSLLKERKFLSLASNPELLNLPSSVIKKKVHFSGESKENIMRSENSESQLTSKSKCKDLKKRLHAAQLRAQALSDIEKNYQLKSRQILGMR
# [8] = biological target: Casein kinase I isoform alpha (Homo sapiens) (UniProt P48729); assay: Inhibition of human full length CSNK1A1 expressed in baculovirus assessed as substrate phosphorylation using fluorescence-labelled peptides as substrate at 8 uM after 90 mins by microfluidic peptide phosphorylation assay
# [9] = test system: Tyrosine-protein kinase ABL1 (Homo sapiens), P00519 [H396P]; assay: Inhibition of human truncated ABL H396P mutant expressed in baculovirus assessed as substrate phosphorylation using fluorescence-labelled peptides as substrate at 8 uM after 90 mins by microfluidic peptide phosphorylation assay
# [10] = species on record: Homo sapiens; assay: Inhibition of human P70S6K catalytic domain expressed in baculovirus assessed as substrate phosphorylation using fluorescence-labelled peptides as substrate at 8 uM after 90 mins by microfluidic peptide phosphorylation assay
# [11] = biological target: T2, Serine/threonine-protein kinase Sgk1 (Homo sapiens) (UniProt O00141); assay: Inhibition of human truncated SGK1 expressed in baculovirus assessed as substrate phosphorylation using fluorescence-labelled peptides as substrate at 70 uM after 90 mins by microfluidic peptide phosphorylation assay
# T2 sequence (whole entry): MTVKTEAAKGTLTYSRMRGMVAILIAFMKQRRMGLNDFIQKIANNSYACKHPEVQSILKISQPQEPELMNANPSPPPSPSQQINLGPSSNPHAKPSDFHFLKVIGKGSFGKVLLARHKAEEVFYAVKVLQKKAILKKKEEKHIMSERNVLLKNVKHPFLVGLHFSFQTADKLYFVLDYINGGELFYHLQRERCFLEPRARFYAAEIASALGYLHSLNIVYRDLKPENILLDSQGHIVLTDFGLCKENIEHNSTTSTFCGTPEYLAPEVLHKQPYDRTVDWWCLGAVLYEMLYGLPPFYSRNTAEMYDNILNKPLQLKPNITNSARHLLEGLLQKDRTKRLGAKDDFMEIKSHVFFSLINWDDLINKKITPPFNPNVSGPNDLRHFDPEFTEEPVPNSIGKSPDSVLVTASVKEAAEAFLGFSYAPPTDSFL
# [12] = biological target: Ribosomal protein S6 kinase alpha-4 (Homo sapiens) (UniProt O75676); assay: Inhibition of human full length MSK2 expressed in baculovirus assessed as substrate phosphorylation using fluorescence-labelled peptides as substrate at 70 uM after 90 mins by microfluidic peptide phosphorylation assay
# Ribosomal protein S6 kinase alpha-4 (Homo sapiens), sequence (O75676 whole entry, looked up, canonical isoform): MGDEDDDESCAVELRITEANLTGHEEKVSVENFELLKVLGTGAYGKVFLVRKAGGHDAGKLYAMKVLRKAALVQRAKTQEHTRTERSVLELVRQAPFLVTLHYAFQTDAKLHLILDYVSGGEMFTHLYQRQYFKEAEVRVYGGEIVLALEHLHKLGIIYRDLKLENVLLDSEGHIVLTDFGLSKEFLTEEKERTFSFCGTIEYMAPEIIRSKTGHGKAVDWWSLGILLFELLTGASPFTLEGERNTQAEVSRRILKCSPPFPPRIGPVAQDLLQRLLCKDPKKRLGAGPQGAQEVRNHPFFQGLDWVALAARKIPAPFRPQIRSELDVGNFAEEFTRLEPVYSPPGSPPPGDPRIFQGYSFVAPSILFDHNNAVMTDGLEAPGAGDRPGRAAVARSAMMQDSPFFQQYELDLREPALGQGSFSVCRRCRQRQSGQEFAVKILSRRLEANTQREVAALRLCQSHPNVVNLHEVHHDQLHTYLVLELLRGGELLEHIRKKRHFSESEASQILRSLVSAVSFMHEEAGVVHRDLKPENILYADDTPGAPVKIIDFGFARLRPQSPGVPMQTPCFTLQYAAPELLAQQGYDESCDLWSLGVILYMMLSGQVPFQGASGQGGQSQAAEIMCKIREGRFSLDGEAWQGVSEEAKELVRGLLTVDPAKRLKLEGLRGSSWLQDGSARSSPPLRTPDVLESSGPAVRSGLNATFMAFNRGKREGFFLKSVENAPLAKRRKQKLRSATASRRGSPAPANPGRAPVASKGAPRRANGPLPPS
# [13] = biological target: Casein kinase I isoform alpha (Homo sapiens) (UniProt P48729); assay: Inhibition of human full length CSNK1A1 expressed in baculovirus assessed as substrate phosphorylation using fluorescence-labelled peptides as substrate at 1000 uM after 90 mins by microfluidic peptide phosphorylation assay
# [14] = biological target: T3, Serine/threonine-protein kinase DCLK2 (Homo sapiens) (UniProt Q8N568); assay: Inhibition of human full length DCAMKL2 expressed in baculovirus assessed as substrate phosphorylation using fluorescence-labelled peptides as substrate at 1000 uM after 90 mins by microfluidic peptide phosphorylation assay
# T3 sequence (whole entry): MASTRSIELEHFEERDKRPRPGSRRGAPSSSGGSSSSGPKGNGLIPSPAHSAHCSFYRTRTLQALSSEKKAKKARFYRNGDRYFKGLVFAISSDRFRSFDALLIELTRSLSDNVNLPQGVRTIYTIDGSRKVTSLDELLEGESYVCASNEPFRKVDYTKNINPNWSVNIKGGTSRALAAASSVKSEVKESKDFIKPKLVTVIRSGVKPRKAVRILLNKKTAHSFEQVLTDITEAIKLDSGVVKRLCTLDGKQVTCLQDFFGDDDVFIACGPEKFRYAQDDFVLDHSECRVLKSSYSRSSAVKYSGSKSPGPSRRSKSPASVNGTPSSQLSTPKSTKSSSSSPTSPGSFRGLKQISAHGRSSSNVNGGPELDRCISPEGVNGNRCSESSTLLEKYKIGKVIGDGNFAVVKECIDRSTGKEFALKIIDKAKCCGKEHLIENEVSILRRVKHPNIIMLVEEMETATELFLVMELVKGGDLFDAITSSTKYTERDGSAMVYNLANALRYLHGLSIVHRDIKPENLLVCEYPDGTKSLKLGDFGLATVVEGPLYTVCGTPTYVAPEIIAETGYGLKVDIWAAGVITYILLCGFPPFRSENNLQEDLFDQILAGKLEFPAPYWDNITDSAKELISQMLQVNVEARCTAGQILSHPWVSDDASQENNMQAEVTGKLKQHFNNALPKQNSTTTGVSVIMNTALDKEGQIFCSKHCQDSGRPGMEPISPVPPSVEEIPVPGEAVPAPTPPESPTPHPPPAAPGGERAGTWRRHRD
smiles,measurement,setting,value
Clc1ccc(C2(c3ccc(-c4ncnc5[nH]cnc45)cc3)CCNCC2)cc1,inhibition,[1],4%
NC1CCN(c2ncnc3[nH]ccc23)CC1,inhibition,[2],34%
NCCc1ccc(-c2ncnc3[nH]cnc23)cc1,inhibition,[3],78%
COC(=O)c1cnc(Nc2cnc(C#N)cn2)cc1NCC1CCNCC1,inhibition,[4],1.5%
same,inhibition,[5],6%
NC1(Cc2ccc(Cl)cc2)CCN(c2ncnc3[nH]ccc23)CC1,inhibition,[6],0%
NCC1CCN(c2ncnc3[nH]ccc23)CC1,inhibition,[7],0%
same,inhibition,[8],32.5%
same,inhibition,[9],20.5%
same,inhibition,[10],68%
CNCc1ccc(-c2ncnc3[nH]cnc23)cc1,inhibition,[11],48%
same,inhibition,[12],68%
c1cnc2[nH]ccc2c1,inhibition,[13],73.5%
same,inhibition,[14],15%
